Values after ≈ are worked out from the molar mass of the structure shown. Active and inactive are the calls of the source. The calls are words filed in the database; no cut-off is given here.
What was measured:
[1] = test system: Mycobacterium tuberculosis; test: Antimicrobial activity against Mycobacterium tuberculosis H37Rv by BACTEC radiometric method; type: functional
[2] = Cytotoxicity against african green monkey Vero cells after 72 hrs by resazurin assay; type: cell-based; conditions: chlorocebus sabaeus
[3] = Selectivity index, ratio of CC50 for african green monkey Vero cells tp MIC for Mycobacterium tuberculosis H37Rv; type: functional
[4] = Lipophilicity, log P of the compound; type: physicochemical; conditions: octanol/water
[5] = test system: Mycobacterium tuberculosis; test: Antimicrobial activity against compound-sensitive Mycobacterium tuberculosis 2280 by agar dilution method and BACTEC radiometric method; type: functional
[6] = test system: Mycobacterium tuberculosis; test: Antimicrobial activity against Mycobacterium tuberculosis H37Rv infected in BALB/c mouse assessed as log10 reduction of bacterial growth in lungs at 25 mg/kg, po administered 6 days a week for 30 days starting from 2 days post infection relative to untreated control; type: functional
[7] = test system: Mycobacterium tuberculosis; test: Antimicrobial activity against Mycobacterium tuberculosis H37Rv infected in mouse J774A.1 cells assessed as growth inhibition at MIC; type: functional
[8] = test system: Mycobacterium tuberculosis; type: functional, organism-based; conditions: H37Rv, 6.25 ug/ml
[9] = test system: Mycobacterium tuberculosis; test: Antimicrobial activity against Mycobacterium tuberculosis H37Rv infected in BALB/c mouse assessed as log10 reduction of bacterial growth in lungs at 100 mg/kg, po administered 6 days a week for 30 days starting from 2 days post infection relative to untreated control; type: functional

| Structure (SMILES) | MIC [1] | CC50 at 72 h [2] | Selectivity Index [3] | logP [4] | MIC [5] | log10cfu [6] | growth inhibition (GI) [7] | Activity [8] | log10cfu [9] |
| --- | --- | --- | --- | --- | --- | --- | --- | --- | --- |
| COc1cc(OCCCN(C)C)c2c(c1)C(C)(C)[C@H](c1ccccc1)[C@H]2c1ccccc1 (relative stereo) | 3.12 µg/mL (≈ 7.27 µM) | 4.59 µg/mL (≈ 10.7 µM) | 1.4 | 6.62 | – | – | – | – | – |
| COc1cc(OCCN2CCCCCC2)c2c(c1)C(C)(C)[C@H](c1ccccc1)[C@H]2c1ccccc1 (relative stereo) | 3.12 µg/mL (≈ 6.65 µM) | 8.11 µg/mL (≈ 17.3 µM) | 2.6 | 7.66 | – | – | – | – | – |
| COc1cc(OCCN2CCCCCC2)c2c(c1)C(C)(C)[C@H](c1ccccc1)[C@H]2c1c(OC)ccc2ccccc12 (relative stereo) | 1.56 µg/mL (≈ 2.84 µM) | 24 µg/mL (≈ 43.6 µM) | 15.37 | 8.53 | 1.56 µg/mL (≈ 2.84 µM) | – | – | – | – |
| CO[C@H]1/C=C/O[C@@]2(C)Oc3c(C)c(O)c4c(O)c(cc(O)c4c3C2=O)NC(=O)/C(C)=C\C=C\[C@H](C)[C@H](O)[C@@H](C)[C@@H](O)[C@@H](C)[C@H](OC(C)=O)[C@@H]1C [RIFAMYCIN] | 0.39 µg/mL (≈ 0.559 µM) | 62.5 µg/mL (≈ 89.5 µM) | 160.1 | 3.71 | – | – | – | – | – |
| NNC(=O)c1ccncc1 [ISONIAZID] | – | – | – | – | – | 2.8 | – | – | – |
| COc1cc(OCCN2CCCCC2)c2c(c1)C(C)(C)[C@H](c1ccccc1)[C@H]2c1ccccc1 (relative stereo) | 1.56 µg/mL (≈ 3.42 µM) | 2.41 µg/mL (≈ 5.29 µM) | 1.54 | 6.57 | – | – | – | – | – |
| COc1cc(OCCN(C)C)c2c(c1)C(C)(C)[C@H](c1ccccc1)[C@H]2c1ccccc1 (relative stereo) | 6.25 µg/mL (≈ 15 µM) | 2.96 µg/mL (≈ 7.12 µM) | 0.47 | 7.24 | – | – | – | – | – |
| COc1cc(OCCN2CCOCC2)c2c(c1)C(C)(C)[C@H](c1ccccc1)[C@H]2c1ccccc1 (relative stereo) | 3.12 µg/mL (≈ 6.83 µM) | 17.5 µg/mL (≈ 38.2 µM) | 5.6 | 6.11 | – | – | – | – | – |
| CCN(CC)CCOc1cc(OC)cc2c1[C@H](c1ccccc1)[C@@H](c1ccccc1)C2(C)C (relative stereo) | 3.12 µg/mL (≈ 7.04 µM) | 3.74 µg/mL (≈ 8.43 µM) | 1.19 | 7.19 | – | – | – | – | – |
| CC[C@@H](CO)NCCN[C@@H](CC)CO [ETHAMBUTOL] | 0.5 µg/mL (≈ 2.45 µM) | 38.5 µg/mL (≈ 188 µM) | 77.02 | 0.14 | – | – | – | – | – |
| COc1cc(OCCN2CCCCC2)c2c(c1)C(C)(C)[C@H](c1ccccc1)[C@H]2c1c(OC)ccc2ccccc12 (relative stereo) | 1.56 µg/mL (≈ 2.91 µM) | 5.52 µg/mL (≈ 10.3 µM) | 3.53 | 8.11 | – | – | – | – | – |
| COc1cc(OCCN2CCCC2)c2c(c1)C(C)(C)[C@H](c1ccccc1)[C@H]2c1ccccc1 (relative stereo) | 3.12 µg/mL (≈ 7.08 µM) | 7.49 µg/mL (≈ 17 µM) | 2.39 | 6.83 | – | – | – | – | – |
| COc1cc(OCCN(C(C)C)C(C)C)c2c(c1)C(C)(C)[C@H](c1ccccc1)[C@H]2c1ccccc1 (relative stereo) | 3.12 µg/mL (≈ 6.63 µM) | 49.2 µg/mL (≈ 104 µM) | 15.73 | 7.82 | 3.12 µg/mL (≈ 6.63 µM) | – | >90% | Active | 1.35 |
